Assay results taken from BindingDB's records for doi:10.1021/jm00055a010 (Salk Institute, 1993).

Target: T1, Neuropeptide Y receptor type 1 (Homo sapiens, UniProt P25929)
T1 sequence (P25929 whole entry): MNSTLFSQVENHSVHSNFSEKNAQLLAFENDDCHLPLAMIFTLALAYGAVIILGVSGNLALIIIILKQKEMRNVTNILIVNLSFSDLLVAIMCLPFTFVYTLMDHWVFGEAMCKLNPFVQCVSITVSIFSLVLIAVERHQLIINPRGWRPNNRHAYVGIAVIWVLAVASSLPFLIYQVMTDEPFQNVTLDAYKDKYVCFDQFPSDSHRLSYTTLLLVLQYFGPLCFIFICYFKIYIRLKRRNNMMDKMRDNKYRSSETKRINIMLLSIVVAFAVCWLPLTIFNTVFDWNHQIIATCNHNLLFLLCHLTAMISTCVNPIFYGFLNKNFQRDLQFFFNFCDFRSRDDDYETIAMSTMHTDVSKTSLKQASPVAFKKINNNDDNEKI
Assay: Tested against neuropeptide Y1 receptors using SK-N-MC human neuroblastoma cells

CC[C@H](C)[C@H](NC(=O)[C@H](CC(C)C)NC(=O)[C@H](CC(N)=O)NC(=O)[C@@H](NC(=O)[C@H]1CNC(=O)CC[C@H](NC(=O)[C@@H](N)Cc2ccc(O)cc2)C(=O)N[C@@H](CO)C(=O)N[C@@H](CCCCN)C(=O)N2CCC[C@H]2C(=O)NCC(=O)N[C@@H](CCCN=C(N)N)C(=O)N[C@@H](Cc2c[nH]cn2)C(=O)N1)[C@@H](C)CC)C(=O)N[C@H](C(=O)N[C@@H](CCCN=C(N)N)C(=O)N[C@@H](CCC(N)=O)C(=O)N[C@@H](CCCN=C(N)N)C(=O)N[C@@H](Cc1ccc(O)cc1)C(N)=O)[C@@H](C)O
Ki: > 1000 nM
